Experimental data published in article PMC7265434, “Zika Virus NS3 Protease Pharmacophore Anchor Model and Drug Discovery” (Scientific Reports, 2020).

Target: T1, ZIKV NS2B/NS3 protease (Zika virus, UniProt Q32ZE1)
T1 construct: cut from ZIKV genome polyprotein
Assay: fluorogenic protease assay, AMC release
Format: biochemical

T1 sequence (Q32ZE1 1499-1668): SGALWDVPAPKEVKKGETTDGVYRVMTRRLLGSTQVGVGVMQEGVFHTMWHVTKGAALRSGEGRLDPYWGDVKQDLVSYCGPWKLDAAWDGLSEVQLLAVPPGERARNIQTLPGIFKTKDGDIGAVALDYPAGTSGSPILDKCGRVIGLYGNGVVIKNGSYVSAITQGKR
T1 sequence (Q32ZE1 1417-1463): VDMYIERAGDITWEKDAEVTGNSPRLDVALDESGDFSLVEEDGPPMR

Compound: C=C[C@@H]1C[C@]1(NC(=O)[C@@H]1C[C@@H](Oc2ncc(OC)c3ccc(Cl)cc23)CN1C(=O)[C@@H](NC(=O)OC(C)(C)C)C(C)(C)C)C(=O)NS(=O)(=O)C1CC1 [Asunaprevir]
- IC50: 6 µM

Compound: COc1ccc2c(O[C@@H]3C[C@H]4C(=O)N[C@]5(C(=O)NS(=O)(=O)C6CC6)C[C@H]5/C=C\CCCCN(C)C(=O)[C@@H]4C3)cc(-c3nc(C(C)C)cs3)nc2c1C [Simeprevir]
- IC50: 2.6 µM
